Test results reported in PubChem BioAssay (NCI).
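1) Cells in 96-well plates. 2) Compound, 48 h, 5 concentrations. 3) Linear interpolation between surrounding doses. 4) Unreached endpoint = highest concentration. GI50 = concentration required for 50% inhibition of growth. Definition used: TGI = concentration required for complete inhibition of growth.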

Legend:
Experiment in all cases: growth of human tumour cells (NCI), 48 h; in the data active means GI50 below about 0.43 µM; inactive means the rest
786-0 renal = test system: 786-0 renal
A498 renal = test system: A498 renal
A549 NSCLC = test system: A549 NSCLC
ACHN renal = test system: ACHN renal
BT-549 breast = test system: BT-549 breast
CAKI-1 renal = test system: CAKI-1 renal
CCRF-CEM leukemia = test system: CCRF-CEM leukemia
COLO 205 colon = test system: COLO 205 colon
DU-145 prostate = test system: DU-145 prostate
EKVX NSCLC = test system: EKVX NSCLC
HCC-2998 colon = test system: HCC-2998 colon
HCT-15 colon = test system: HCT-15 colon
HL-60(TB) leukemia = test system: HL-60(TB) leukemia
HOP-62 NSCLC = test system: HOP-62 NSCLC
HOP-92 NSCLC = test system: HOP-92 NSCLC
HS 578T breast = test system: HS 578T breast
HT29 colon = test system: HT29 colon
IGROV1 ovarian = test system: IGROV1 ovarian
K-562 leukemia = test system: K-562 leukemia
KM12 colon = test system: KM12 colon
LOX IMVI melanoma = test system: LOX IMVI melanoma
M14 melanoma = test system: M14 melanoma
MALME-3M melanoma = test system: MALME-3M melanoma
MCF7 breast = test system: MCF7 breast
MDA-MB-231 breast = test system: MDA-MB-231 breast
MDA-MB-435 = test system: MDA-MB-435
MOLT-4 leukemia = test system: MOLT-4 leukemia
NCI-H226 lung = test system: NCI-H226 lung
NCI-H23 lung = test system: NCI-H23 lung
NCI-H460 lung = test system: NCI-H460 lung
NCI-H522 lung = test system: NCI-H522 lung
NCI/ADR-RES ovarian = test system: NCI/ADR-RES ovarian
OVCAR-3 ovarian = test system: OVCAR-3 ovarian
OVCAR-4 ovarian = test system: OVCAR-4 ovarian
OVCAR-5 ovarian = test system: OVCAR-5 ovarian
OVCAR-8 ovarian = test system: OVCAR-8 ovarian
PC-3 prostate = test system: PC-3 prostate
RPMI-8226 leukemia = test system: RPMI-8226 leukemia
SF-268 CNS = test system: SF-268 CNS
SF-295 CNS = test system: SF-295 CNS
SF-539 CNS = test system: SF-539 CNS
SK-MEL-2 melanoma = test system: SK-MEL-2 melanoma
SK-MEL-28 melanoma = test system: SK-MEL-28 melanoma
SK-MEL-5 melanoma = test system: SK-MEL-5 melanoma
SK-OV-3 ovarian = test system: SK-OV-3 ovarian
SN12C renal = test system: SN12C renal
SNB-19 CNS = test system: SNB-19 CNS
SNB-75 CNS = test system: SNB-75 CNS
SW-620 colon = test system: SW-620 colon
T-47D breast = test system: T-47D breast
TK-10 renal = test system: TK-10 renal
U251 CNS = test system: U251 CNS
UACC-257 melanoma = test system: UACC-257 melanoma
UACC-62 melanoma = test system: UACC-62 melanoma
UO-31 renal = test system: UO-31 renal

Cc1cc(Cl)ccc1OCC(=O)Nc1nc2c(Cl)cccc2s1
25.2 µM: TGI (U251 CNS)
35.7 µM: TGI (CCRF-CEM leukemia)
93.8 µM: TGI (OVCAR-3 ovarian)
42 µM: TGI (A549 NSCLC)
91.9 µM: TGI (MDA-MB-231 breast)
55.1 µM: TGI (HOP-62 NSCLC)
inactive: GI50 (786-0 renal) 26.4 µM | GI50 (A498 renal) > 100 µM | GI50 (A549 NSCLC) 16.7 µM | GI50 (ACHN renal) 43.3 µM | GI50 (BT-549 breast) > 100 µM | GI50 (CAKI-1 renal) > 100 µM | GI50 (CCRF-CEM leukemia) 6.94 µM | GI50 (COLO 205 colon) > 100 µM | GI50 (DU-145 prostate) 26.4 µM | GI50 (EKVX NSCLC) > 100 µM | GI50 (HCC-2998 colon) > 100 µM | GI50 (HCT-15 colon) 6.49 µM | GI50 (HL-60(TB) leukemia) 5.63 µM | GI50 (HOP-62 NSCLC) 19.6 µM | GI50 (HOP-92 NSCLC) 21 µM | GI50 (HS 578T breast) > 100 µM | GI50 (HT29 colon) > 100 µM | GI50 (IGROV1 ovarian) > 100 µM | GI50 (K-562 leukemia) 7.25 µM | GI50 (KM12 colon) 43.5 µM | GI50 (LOX IMVI melanoma) 9.82 µM | GI50 (M14 melanoma) > 100 µM | GI50 (MALME-3M melanoma) > 100 µM | GI50 (MCF7 breast) 11.2 µM | GI50 (MDA-MB-231 breast) 16.2 µM | GI50 (MDA-MB-435) > 100 µM | GI50 (MOLT-4 leukemia) 6.94 µM | GI50 (NCI-H226 lung) 53.3 µM | GI50 (NCI-H23 lung) 73 µM | GI50 (NCI-H522 lung) 46.9 µM | GI50 (NCI/ADR-RES ovarian) 23.8 µM | GI50 (OVCAR-3 ovarian) 28.1 µM | GI50 (OVCAR-4 ovarian) 46.7 µM | GI50 (OVCAR-5 ovarian) 50.4 µM | GI50 (OVCAR-8 ovarian) 15.9 µM | GI50 (PC-3 prostate) 8.89 µM | GI50 (RPMI-8226 leukemia) 18.7 µM | GI50 (SF-268 CNS) 28.8 µM | GI50 (SF-295 CNS) 20.8 µM | GI50 (SF-539 CNS) 17.4 µM | GI50 (SK-MEL-2 melanoma) > 100 µM | GI50 (SK-MEL-28 melanoma) > 100 µM | GI50 (SK-MEL-5 melanoma) > 100 µM | GI50 (SK-OV-3 ovarian) 96.2 µM | GI50 (SN12C renal) 39.2 µM | GI50 (SNB-19 CNS) 31.2 µM | GI50 (SNB-75 CNS) 23.7 µM | GI50 (SW-620 colon) > 100 µM | GI50 (T-47D breast) > 100 µM | GI50 (TK-10 renal) 61.3 µM | GI50 (U251 CNS) 8.32 µM | GI50 (UACC-257 melanoma) > 100 µM | GI50 (UACC-62 melanoma) 7.41 µM | GI50 (UO-31 renal) > 100 µM
29.4 µM: TGI (OVCAR-8 ovarian)
97.5 µM: TGI (HOP-92 NSCLC)
24 µM: TGI (MCF7 breast)
72 µM: TGI (SNB-19 CNS)
> 100 µM: TGI (786-0 renal) | TGI (A498 renal) | TGI (ACHN renal) | TGI (BT-549 breast) | TGI (CAKI-1 renal) | TGI (COLO 205 colon) | TGI (DU-145 prostate) | TGI (EKVX NSCLC) | TGI (HCC-2998 colon) | TGI (HCT-15 colon) | TGI (HL-60(TB) leukemia) | TGI (HS 578T breast) | TGI (HT29 colon) | TGI (IGROV1 ovarian) | TGI (K-562 leukemia) | TGI (KM12 colon) | TGI (M14 melanoma) | TGI (MALME-3M melanoma) | TGI (MDA-MB-435) | TGI (NCI-H226 lung) | TGI (NCI-H23 lung) | TGI (NCI-H460 lung) | TGI (NCI-H522 lung) | TGI (NCI/ADR-RES ovarian) | TGI (OVCAR-4 ovarian) | TGI (OVCAR-5 ovarian) | TGI (PC-3 prostate) | TGI (RPMI-8226 leukemia) | TGI (SF-268 CNS) | TGI (SF-295 CNS) | TGI (SF-539 CNS) | TGI (SK-MEL-2 melanoma) | TGI (SK-MEL-28 melanoma) | TGI (SK-MEL-5 melanoma) | TGI (SK-OV-3 ovarian) | TGI (SN12C renal) | TGI (SNB-75 CNS) | TGI (SW-620 colon) | TGI (T-47D breast) | TGI (TK-10 renal) | TGI (UACC-257 melanoma) | TGI (UACC-62 melanoma) | TGI (UO-31 renal)
45.6 µM: TGI (LOX IMVI melanoma)
60.3 µM: TGI (MOLT-4 leukemia)
